Target: Lysine-specific histone demethylase 1A (Homo sapiens, UniProt O60341)
Experiment: Inhibition of human LSD1 (172 to 833 residues) assessed as reduction in H2O2 production using H3K4me2 (1 to 20 residues) peptide as substrate preincubated for 10 mins followed by substrate addition measured after 30 mins by peroxidase coupled enzyme assay

SMILES	Ki [µM]
CSCC[C@H](NC(=O)[C@@H](NC(=O)[C@H](CCCNC(=N)N)NC(=O)CO)[C@@H](C)O)C(=O)N[C@@H](CCC(N)=O)C(=O)N[C@H](C(=O)N[C@@H](C)C(=O)N[C@@H](CCCNC(=N)N)C(=O)N[C@@H](CCCCN)C(=O)N[C@@H](CO)C(=O)N[C@H](C(=O)NCC(=O)NCC(=O)N[C@@H](CCCCN)C(=O)N[C@@H](C)C(=O)N1CCC[C@H]1C(=O)N[C@@H](CCCNC(=N)N)C(=O)N[C@@H](CCCCN)C(=O)N[C@@H](CCC(N)=O)C(=O)N[C@@H](CC(C)C)C(N)=O)[C@@H](C)O)[C@@H](C)O	170
CSCC[C@H](NC(=O)[C@@H](NC(=O)[C@@H](N)CCCNC(=N)N)[C@@H](C)O)C(=O)N[C@@H](CCC(N)=O)C(=O)N[C@H](C(=O)N[C@@H](C)C(=O)N[C@@H](CCCNC(=N)N)C(=O)N[C@@H](CCCCN)C(=O)N[C@@H](CO)C(=O)N[C@H](C(=O)NCC(=O)NCC(=O)N[C@@H](CCCCN)C(=O)N[C@@H](C)C(=O)N1CCC[C@H]1C(=O)N[C@@H](CCCNC(=N)N)C(=O)N[C@@H](CCCCN)C(=O)N[C@@H](CCC(N)=O)C(=O)N[C@@H](CC(C)C)C(N)=O)[C@@H](C)O)[C@@H](C)O	> 500

From ChEMBL document CHEMBL4017445, “Development and crystallographic evaluation of histone H3 peptide with N-terminal serine substitution as a potent inhibitor of lysine-specific demethylase 1” (Bioorg Med Chem, 2017)
